Marks after values point to notes of the source that are not given here.
System: neuron apoptosis-operated rats
Test: Example 1 water tank task (cognitive motor behavior)
Type: in vivo, Sprague-Dawley (SD) rats
Procedure: Cognitive testing was conducted using the water tank task (J Neurosci Methods. 11:47-60(1984)). 14 and 28 after neuron apoptosis, the rats were given a series of 3 trials, 10 min apart in a large dark-colored tank (150 cm in diameters×50 cm in height) filled with clear water at a temperature of 22.0±1.0° C. A 15×30 cm submerged platform (2 mm below water surface) was placed in the northwest quadrant of the pool. The release point was always the southern end of the pool. The rats were lowered into the pool facing the wall and were released. The swim paths of the rats for each trials were recorded with a computer interfaced camera tracking system (Smart junior, PanLab, Spain), and the distances (m) and times (sec) taken to reach the escape platform were measured.
All data were expressed as mean±standard deviation (S.D.) of ten rats. Multiple comparison tests for different dose groups were conducted. Variance homogeneity was examined using the Levene test (Levene A, Clin Otalary, 1981; 6:145-51). […] Statistical analyses were conducted using SPSS (Release 14K, SPSS Inc., USA; Ludbrook, Clin Exp Pharmacol Physiol, 1997; 24:294-6). In addition, the percent changes between neuron apoptosis control and mirodenafil treated rats were calculated to help the understanding of the efficacy of test material as follow equation 3. Percentage changes as compared with neuron apoptosis control (%)=[((Data of mirodenafil treated groups−Data of neuron apoptosis control)/Data of neuron apoptosis control)×100] [EQUATION 3]

[1] = 0.5 mg/kg s.c. once a day, at 14 days, Mean of trials
[2] = 0.5 mg/kg s.c. once a day, at 14 days, trial 1
[3] = 0.5 mg/kg s.c. once a day, at 14 days, trial 2
[4] = 0.5 mg/kg s.c. once a day, at 14 days, trial 3
[5] = 0.5 mg/kg s.c. once a day, at 28 days, Mean of trials
[6] = 0.5 mg/kg s.c. once a day, at 28 days, trial 1
[7] = 0.5 mg/kg s.c. once a day, at 28 days, trial 2
[8] = 0.5 mg/kg s.c. once a day, at 28 days, trial 3
[9] = 1 mg/kg s.c. once a day, at 14 days, Mean of trials
[10] = 1 mg/kg s.c. once a day, at 14 days, trial 1
[11] = 1 mg/kg s.c. once a day, at 14 days, trial 2
[12] = 1 mg/kg s.c. once a day, at 14 days, trial 3
[13] = 1 mg/kg s.c. once a day, at 28 days, Mean of trials
[14] = 1 mg/kg s.c. once a day, at 28 days, trial 1
[15] = 1 mg/kg s.c. once a day, at 28 days, trial 2
[16] = 1 mg/kg s.c. once a day, at 28 days, trial 3
[17] = 2 mg/kg s.c. once a day, at 14 days, Mean of trials
[18] = 2 mg/kg s.c. once a day, at 14 days, trial 1
[19] = 2 mg/kg s.c. once a day, at 14 days, trial 2
[20] = 2 mg/kg s.c. once a day, at 14 days, trial 3
[21] = 2 mg/kg s.c. once a day, at 28 days, Mean of trials
[22] = 2 mg/kg s.c. once a day, at 28 days, trial 1
[23] = 2 mg/kg s.c. once a day, at 28 days, trial 2
[24] = 2 mg/kg s.c. once a day, at 28 days, trial 3

## CCCOc1ccc(S(=O)(=O)N2CCN(CCO)CC2)cc1-c1nc2c(CCC)cn(CC)c2c(=O)[nH]1 [Mirodenafil, mirodenafil]
[1]
  The distance to reach the escape platform: 13.36 ± 0.81^a m
  The time to reach the escape platform: 119.6 ± 9.53^ad sec
[2]
  The distance to reach the escape platform: 15.89 ± 1.14 m
  The time to reach the escape platform: 149.8 ± 11.05^a sec
[3]
  The distance to reach the escape platform: 13.35 ± 1.02^ad m
  The time to reach the escape platform: 118.0 ± 10.38^ad sec
[4]
  The distance to reach the escape platform: 10.83 ± 0.85^a m
  The time to reach the escape platform: 91.0 ± 11.49^ac sec
[5]
  The distance to reach the escape platform: 11.38 ± 0.76^ac m
  The time to reach the escape platform: 92.1 ± 9.98^ac sec
[6]
  The distance to reach the escape platform: 13.24 ± 0.83^ad m
  The time to reach the escape platform: 113.7 ± 9.57^ac sec
[7]
  The distance to reach the escape platform: 11.22 ± 1.08^ad m
  The time to reach the escape platform: 88.5 ± 12.48^ac sec
[8]
  The distance to reach the escape platform: 9.68 ± 0.75^ef m
  The time to reach the escape platform: 74.1 ± 10.58^ac sec
0.5 mg/kg, trial 1 of 28 days
  distances to reach the escape platform, change as compared with neuron apoptosis control: −9.80%
  time to reach the escape platform, change as compared with neuron apoptosis control: −11.45%
0.5 mg/kg, trial 2 of 14 days
  distances to reach the escape platform, change as compared with neuron apoptosis control: −7.93%
  time to reach the escape platform, change as compared with neuron apoptosis control: −10.47%
0.5 mg/kg, trial 2 of 28 days
  distances to reach the escape platform, change as compared with neuron apoptosis control: −14.02%
  time to reach the escape platform, change as compared with neuron apoptosis control: −22.23%
0.5 mg/kg, trial 3 of 14 days
  distances to reach the escape platform, change as compared with neuron apoptosis control: −9.42%
  time to reach the escape platform, change as compared with neuron apoptosis control: −18.37%
0.5 mg/kg, trial 3 of 28 days
  distances to reach the escape platform, change as compared with neuron apoptosis control: −17.56%
  time to reach the escape platform, change as compared with neuron apoptosis control: −29.16%
[9]
  The distance to reach the escape platform: 12.83 ± 1.29^ac m
  The time to reach the escape platform: 116.7 ± 6.30^ac sec
[10]
  The distance to reach the escape platform: 15.93 ± 1.21 m
  The time to reach the escape platform: 150.9 ± 9.00^a sec
[11]
  The distance to reach the escape platform: 12.89 ± 1.61^ac m
  The time to reach the escape platform: 115.3 ± 8.19^ac sec
[12]
  The distance to reach the escape platform: 9.66 ± 1.42^ac m
  The time to reach the escape platform: 83.9 ± 10.10^ac sec
[13]
  The distance to reach the escape platform: 9.39 ± 1.33^ac m
  The time to reach the escape platform: 81.0 ± 8.68^ac sec
[14]
  The distance to reach the escape platform: 12.65 ± 1.24^ac m
  The time to reach the escape platform: 106.6 ± 10.52^bc sec
[15]
  The distance to reach the escape platform: 9.33 ± 2.17^ac m
  The time to reach the escape platform: 78.4 ± 13.55^ac sec
[16]
  The distance to reach the escape platform: 6.19 ± 1.93^ef m
  The time to reach the escape platform: 58.1 ± 9.22^ac sec
1 mg/kg, trial 1 of 28 days
  distances to reach the escape platform, change as compared with neuron apoptosis control: −13.80%
  time to reach the escape platform, change as compared with neuron apoptosis control: −16.98%
1 mg/kg, trial 2 of 14 days
  distances to reach the escape platform, change as compared with neuron apoptosis control: −11.07%
  time to reach the escape platform, change as compared with neuron apoptosis control: −12.52%
1 mg/kg, trial 2 of 28 days
  time to reach the escape platform, change as compared with neuron apoptosis control: −31.11%
1 mg/kg, trial 3 of 14 days
  distances to reach the escape platform, change as compared with neuron apoptosis control: −19.20%
  time to reach the escape platform, change as compared with neuron apoptosis control: −24.82%
1 mg/kg, trial 3 of 28 days
  distances to reach the escape platform, change as compared with neuron apoptosis control: −47.33%
  time to reach the escape platform, change as compared with neuron apoptosis control: −44.46%
[17]
  The distance to reach the escape platform: 12.79 ± 0.64^ac m
  The time to reach the escape platform: 116.6 ± 10.88^ac sec
[18]
  The distance to reach the escape platform: 16.18 ± 1.49 m
  The time to reach the escape platform: 151.2 ± 10.59^a sec
[19]
  The distance to reach the escape platform: 12.68 ± 0.82^ac m
  The time to reach the escape platform: 115.9 ± 12.51^ac sec
[20]
  The distance to reach the escape platform: 9.52 ± 1.27^ac m
  The time to reach the escape platform: 82.7 ± 15.17^ac sec
[21]
  The distance to reach the escape platform: 9.46 ± 1.25^ac m
  The time to reach the escape platform: 80.6 ± 6.63^ac sec
[22]
  The distance to reach the escape platform: 12.62 ± 1.21^ac m
  The time to reach the escape platform: 106.5 ± 9.79^bc sec
[23]
  The distance to reach the escape platform: 9.18 ± 1.46^ac m
  The time to reach the escape platform: 78.2 ± 8.19^ac sec
[24]
  The distance to reach the escape platform: 6.56 ± 1.85^ef m
  The time to reach the escape platform: 57.2 ± 6.43^ac sec
2 mg/kg, trial 1 of 28 days
  distances to reach the escape platform, change as compared with neuron apoptosis control: −14.01%
  time to reach the escape platform, change as compared with neuron apoptosis control: −17.06%
2 mg/kg, trial 2 of 14 days
  distances to reach the escape platform, change as compared with neuron apoptosis control: −12.54%
  time to reach the escape platform, change as compared with neuron apoptosis control: −12.06%
2 mg/kg, trial 2 of 28 days
  distances to reach the escape platform, change as compared with neuron apoptosis control: −29.65%
  time to reach the escape platform, change as compared with neuron apoptosis control: −31.28%
2 mg/kg, trial 3 of 14 days
  distances to reach the escape platform, change as compared with neuron apoptosis control: −20.37%
  time to reach the escape platform, change as compared with neuron apoptosis control: −25.90%
2 mg/kg, trial 3 of 28 days
  distances to reach the escape platform, change as compared with neuron apoptosis control: −44.14%
  time to reach the escape platform, change as compared with neuron apoptosis control: −45.32%
